According to article PMC10288352 (IET Nanobiotechnology, 2023):
Where two headings read alike, the source gives them in different places.

What was measured:
xanthine oxidase (XO) [1] = target: xanthine oxidase (XO); parameters: method as in PMID 15234783; conditions: read-out: IC50 (XO inhibition); cited from earlier work
[2] = cited from earlier work
Xanthine oxidase (XO) [3] = target: T1, Xanthine oxidase (XO) (Bos taurus, UniProt P80457); experiment: Fluorescence titration (quenching) assay; format: binding, cow; conditions: for Kq (quenching rate constant): τ0 10^−8 s
T1 sequence (P80457 whole entry): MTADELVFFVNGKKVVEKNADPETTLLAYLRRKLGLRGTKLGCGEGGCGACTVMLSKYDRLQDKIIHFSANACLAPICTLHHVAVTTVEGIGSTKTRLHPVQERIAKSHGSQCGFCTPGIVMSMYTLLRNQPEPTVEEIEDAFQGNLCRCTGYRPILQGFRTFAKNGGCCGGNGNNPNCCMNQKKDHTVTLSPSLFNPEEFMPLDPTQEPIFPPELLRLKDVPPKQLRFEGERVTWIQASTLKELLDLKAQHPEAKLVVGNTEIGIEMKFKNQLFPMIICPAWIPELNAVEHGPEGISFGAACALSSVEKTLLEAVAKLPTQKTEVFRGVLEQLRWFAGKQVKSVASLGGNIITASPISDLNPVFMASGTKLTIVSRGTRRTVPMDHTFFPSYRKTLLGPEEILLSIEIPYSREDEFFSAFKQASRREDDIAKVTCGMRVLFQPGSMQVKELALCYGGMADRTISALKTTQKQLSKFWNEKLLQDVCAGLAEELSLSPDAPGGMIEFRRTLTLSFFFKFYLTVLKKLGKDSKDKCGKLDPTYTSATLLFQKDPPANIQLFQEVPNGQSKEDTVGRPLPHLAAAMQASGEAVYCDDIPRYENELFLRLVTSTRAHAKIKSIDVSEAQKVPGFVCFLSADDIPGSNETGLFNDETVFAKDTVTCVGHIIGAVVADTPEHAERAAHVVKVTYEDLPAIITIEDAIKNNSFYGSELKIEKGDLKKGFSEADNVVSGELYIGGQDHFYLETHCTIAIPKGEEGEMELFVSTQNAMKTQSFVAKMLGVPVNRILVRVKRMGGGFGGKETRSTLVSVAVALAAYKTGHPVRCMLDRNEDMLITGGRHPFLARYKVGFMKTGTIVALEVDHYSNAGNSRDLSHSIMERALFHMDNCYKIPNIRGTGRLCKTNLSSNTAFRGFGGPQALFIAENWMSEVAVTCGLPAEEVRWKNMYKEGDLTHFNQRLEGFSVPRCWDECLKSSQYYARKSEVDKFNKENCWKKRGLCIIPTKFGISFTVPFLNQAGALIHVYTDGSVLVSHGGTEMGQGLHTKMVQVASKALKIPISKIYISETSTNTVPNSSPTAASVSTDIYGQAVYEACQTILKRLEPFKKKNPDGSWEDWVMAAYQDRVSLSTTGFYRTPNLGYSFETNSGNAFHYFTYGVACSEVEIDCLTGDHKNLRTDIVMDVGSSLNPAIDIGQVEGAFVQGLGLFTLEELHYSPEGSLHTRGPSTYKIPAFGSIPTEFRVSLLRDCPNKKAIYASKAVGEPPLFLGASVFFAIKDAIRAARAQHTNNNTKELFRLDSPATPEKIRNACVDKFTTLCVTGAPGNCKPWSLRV
Description: An aliquot of XO solution (2.0 ml, 0.04 U/mL) was placed in a quartz cuvette (1 cm) and titrated with 0.1 ml EA solution (0.1 mmol/L) each time. The mixture was then placed in a thermostatic bath, and after 5 min, fluorescence spectra ranging from 290 to 500 nm (excitation: 280 nm) were recorded at 298, 304 and 310 K using the FS5 spectrofluorometer (Edinburgh Instruments, England). The fluorescence background was corrected by subtracting the PBS blank. Additionally, to account for EA's UV absorption, all fluorescence data were corrected according to the following equation: (4) Fc=Fme^A1+A2/2
Here, F m and F c represent the measured and corrected fluorescence, respectively, and A1 and A2 denote EA UV absorbance at 280 nm (excitation wavelength) and 404 nm (emission wavelength), respectively.
The Stern‐Volmer equation shown below was used to distinguish the quenching mechanism. (5) F0/F=1+Kqτ0[Q]=1+Ksv[Q]
The fluorescence intensities with and without EA are indicated by the symbols F and F 0, respectively. The quenching rate constant of the biological macromolecule is represented by K q . The average lifetime of fluorophore is represented by the symbol τ0 (10^−8 s). K SV is the dynamic quenching constant of Stern–Volmer; [Q] is the concentration of EA. […] Then K SV values at 298, 304 and 310 K were calculated to be 1.881 × 10^5, 1.661 × 10^5, and 1.455 × 10^5 L/mol, respectively, using the Stern‐Volmer equation. […] Similarly, the K q values at 298, 304 and 310 K were determined to be 1.881 × 10^13, 1.661 × 10^13, and 1.455 × 10^13 L/(mol·s), respectively.
(6) logF0−F/F=logKa+nlog[Q]
To determine the interaction forces between EA and XO, such as hydrogen bonding, hydrophobic interaction, van der Waals force, and electrostatic force, thermodynamic parameters including […], and Gibbs free energy (△G) were analysed using the Van't Hoff Equation (7) and Gibbs‐Helmholtz Equation (8) at different temperatures. The equations are as follows: (7) logKa=−∆H/2.303RT+∆S/2.303R (8) ∆G=∆H−T∆S

Xanthine oxidase (XO) [4] = target: T1, Xanthine oxidase (XO); experiment: Determination of xanthine oxidase activity (UV, 290 nm); format: biochemical, cow
Description: Xanthine oxidase activity was determined following a previously reported method [20]. The test compounds were dissolved in DMSO, and the resulting solutions were appropriately diluted for the assay. Xanthine oxidase and xanthine solutions with concentrations of 0.04 U/mL and 0.1 mmol/L, respectively, were prepared using 0.2 mol/L phosphate buffered solution (PBS, pH 7.4) as the solvent. An aliquot of the test solution (0.1 ml) with various concentrations was added separately to XO solution (0.2 ml). The resulting solution was well mixed and incubated for 5 min at 298 K. Then, the substrate (xanthine) solution was pipetted into the mixture to initiate the enzymatic reaction, and the OD value of the resulting solution was recorded every 60 s at 290 nm using a UV spectrometer (UV 2550, SHIMADZU) at 298 K. Xanthine oxidase activity was determined without adding an inhibitor and was considered 100%. […] Each test was performed three times (n = 3). The equation for calculating the relative activity (RA) of XO is as follows: RA (%) = R i/R c × 100%, where R i and R c represent the reaction rates of the solution with and without inhibitors, respectively. The IC50 value was calculated based on the plot of RA versus inhibitor concentration.

Xanthine oxidase (XO) [5] = target: T1, Xanthine oxidase (XO); experiment: Kinetic analysis of XO inhibition (Lineweaver-Burk); format: biochemical, cow
Description: Here, [S] and [I] represent the substrate (xanthine) and inhibitor (EA) concentrations, respectively. The reaction rate and maximum reaction rate are represented by ν and Vmax, respectively. K i and K is indicate the inhibition constants of EA binding with the free XO and XO‐xanthine complex, respectively. The Michaelis‐Menten constant is denoted by the symbol K m . The type of inhibition exerted by EA on XO was determined using Equation (1).

[6] = tested on: PO-induced hyperuricemia mouse model; experiment: PO-induced hyperuricemic mouse model, serum uric acid; format: in vivo, ICR mice; conditions: mice
Description: ICR mice weighing 25 ± 2 g were purchased from Wushi Dongwu Co., LTD (Fujian, China). The protocol for animal experiments (#202030) was approved by the Animal Use and Care Committee of Putian University. To establish a hyperuricemic mouse model, we followed our previously reported method, which involved intraperitoneal injection of PO at a dose of 250 mg/kg. […] Mice in all groups except the CG were given PO to raise serum uric acid levels, while the CG mice were given 1 ml of 0.9% NaCl. […] After 2 hours, blood was obtained from the tail vein and was centrifuged at 4000 rpm for 8 min. The serum obtained was kept at −80 °C for the following assay.

mice = experiment: NOEL estimated for mice from rat value; format: in vivo
xanthine oxidase (XO) [7] = conditions: read-out: IC50 (XO inhibition); cited from earlier work
xanthine oxidase (XO) [8] = target: xanthine oxidase (XO); parameters: method as in doi:10.2991/efood.k.190802.004; conditions: read-out: IC50 (XO inhibition); cited from earlier work
rats = conditions: cited from earlier work
xanthine oxidase (XO) [9] = target: xanthine oxidase (XO); parameters: method as in PMID 29567192; conditions: fluorescence quenching technology; read-out: IC50 (XO inhibition); cited from earlier work
xanthine oxidase (XO) [10] = target: xanthine oxidase (XO); parameters: method as in PMID 2393948; conditions: read-out: IC50 (XO inhibition); cited from earlier work
[11] = Van't Hoff equation, 298, 304 and 310 K

## O=c1oc2c(O)c(O)cc3c(=O)oc4c(O)c(O)cc1c4c23 [EA, Ellagic acid]
Xanthine oxidase (XO) [1]
  IC50: 71.5 µM
[2]
  Bioavailability: very poor
  Permeability: limited
  Solubility: low
Xanthine oxidase (XO) [3]
  Fluorescence quenching mechanism: static quenching
Xanthine oxidase (XO) [3]; 298 K
  KSV (Stern-Volmer dynamic quenching constant): 188100 L/mol
  Ksv: 1.881 ± 0.05 ×10^5 L/mol
  n (number of binding sites): 1.183 ± 0.02
  △G: -5.753 ± 0.0669 kcal/mol
  Kq (quenching rate constant): 1.881e+13 M⁻¹ s⁻¹
Xanthine oxidase (XO) [3]; 304 K
  KSV (Stern-Volmer dynamic quenching constant): 166100 L/mol
  Ksv: 1.661 ± 0.03 ×10^5 L/mol
  n (number of binding sites): 1.236 ± 0.04
  △G: -5.758 ± 0.0765 kcal/mol
  Kq (quenching rate constant): 1.661e+13 M⁻¹ s⁻¹
Xanthine oxidase (XO) [3]; 310 K
  KSV (Stern-Volmer dynamic quenching constant): 145500 L/mol
  Ksv: 1.455 ± 0.04 ×10^5 L/mol
  n (number of binding sites): 1.308 ± 0.02
  △G: -5.762 ± 0.0813 kcal/mol
  Kq (quenching rate constant): 1.455e+13 M⁻¹ s⁻¹
Xanthine oxidase (XO) [3]; EA […] μmol/L, 404 nm, Ex 280 nm
  XO fluorescence intensity decreased to: 14.15%
Xanthine oxidase (XO) [3]; [11]
  △H: -5.514 ± 0.0598 kcal/mol
  △S: 3.36 ± 0.03 J/mol/K
Xanthine oxidase (XO) [4]; T = 298 K, pH 7.4, [xanthine] = 0.1 mmol/L, [XO] = 0.04 U/mL, read-out: IC50 (XO inhibition)
  IC50: 22.97 ± 0.12 µM
Xanthine oxidase (XO) [4]; plots of ν versus [XO], [xanthine] = 0.1 mmol/L
  Reversibility of XO inhibition: reversible inhibitor
Xanthine oxidase (XO) [5]; Lineweaver-Burk plot
  Type of inhibition on XO: mixed‐type inhibitor
Xanthine oxidase (XO) [5]; [XO] = 0.04 U/mL, xanthine 6.25 to 50 μmol/L
  Kis (inhibition constant, binding with XO-xanthine complex): 57.24 ± 0.23 µmol/L
Xanthine oxidase (XO) [5]; [XO] = 0.04 U/mL, xanthine 6.25 to 50 μmol/L, read-out: Ki (inhibition constant, binding with free XO)
  Ki: 10.6 ± 0.08 µM
[6]; 160 mg/kg intragastrically after PO 250 mg/kg i.p., MG 6.18 ± 0.18
  Serum uric acid: 5.09 ± 0.57 mg/dL
[6]; 320 mg/kg intragastrically after PO 250 mg/kg i.p., MG 6.18 ± 0.18
  Serum uric acid: 4.19 ± 0.53 mg/dL
[6]; 480 mg/kg intragastrically after PO 250 mg/kg i.p., MG 6.18 ± 0.18
  Serum uric acid: 2.87 ± 0.41 mg/dL
mice
  NOEL, estimated value for mice: 4215 mg/kg/day
Xanthine oxidase (XO) [7]
  IC50: 166 µM
Xanthine oxidase (XO) [8]
  IC50: 18 µM
rats; rat, in vivo
  Safe dietary supplement dose: ≤ 3011 mg/kg/day
  Safe dietary supplement level: up to 5%
rats; rats
  no-observed-effect level (NOEL): 3011 mg/kg/day
Xanthine oxidase (XO) [9]
  IC50: 6.5 µM
Xanthine oxidase (XO) [10]
  IC50: 3.1 µM

## Oc1ncnc2[nH]ncc12 [allopurinol, reference compound]
[6]; 20 mg/kg intragastrically after PO 250 mg/kg i.p., MG 6.18 ± 0.18, CG 2.16 ± 0.51
  Serum uric acid: 2.01 ± 0.34 mg/dL
